What was measured:
Conditions in all cases: human; call rule not given here
Hepatotoxicity [1] = experiment: FDA HLAED, lactate dehydrogenase (LDH) increase
Hepatotoxicity [2] = experiment: FDA HLAED, gamma-glutamyl transferase (GGT) increase
Hepatotoxicity [3] = experiment: FDA HLAED, liver enzyme composite activity
Hepatotoxicity [4] = experiment: FDA HLAED, serum glutamic oxaloacetic transaminase (SGOT) increase
Hepatotoxicity [5] = experiment: FDA HLAED, alkaline phosphatase increase
Hepatotoxicity [6] = experiment: FDA HLAED, serum glutamic pyruvic transaminase (SGPT) increase
Wherever GGT Increase - Index Value is given: reference of the scale not given here.
Wherever LDH Increase - Index Value is given: reference of the scale not given here.

SMILES	LDH Increase - Activity Score (Hepatotoxicity [1])	LDH Increase - Index Value (Hepatotoxicity [1])	LDH Increase - Number of Reports (Hepatotoxicity [1])	GGT Increase - Activity Score (Hepatotoxicity [2])	GGT Increase - Index Value (Hepatotoxicity [2])	GGT Increase - Number of Reports (Hepatotoxicity [2])	Composite Activity - Active (Hepatotoxicity [3])	Composite Activity - Marginal (Hepatotoxicity [3])	Composite Activity - Score (Hepatotoxicity [3])	SGOT Increase - Activity Score (Hepatotoxicity [4])	SGOT Increase - Index Value (Hepatotoxicity [4])	SGOT Increase - Number of Reports (Hepatotoxicity [4])	Alkaline Phosphatase Increase - Activity Score (Hepatotoxicity [5])	Alkaline Phosphatase Increase - Index Value (Hepatotoxicity [5])	Alkaline Phosphatase Increase - Number of Reports (Hepatotoxicity [5])	SGPT Increase - Activity Score (Hepatotoxicity [6])	SGPT Increase - Index Value (Hepatotoxicity [6])	SGPT Increase - Number of Reports (Hepatotoxicity [6])
CCCC1O[C@@H]2C[C@H]3[C@@H]4CCC5=CC(=O)C=C[C@]5(C)[C@H]4[C@@H](O)C[C@]3(C)[C@]2(C(=O)CO)O1 (stereo partly specified) [BUDESONIDE]	Inactive	0	< 4	Inactive	0	< 4	0	0	Inactive	Inactive	0	< 4	Inactive	0.2	< 4	Inactive	0	< 4
CCCCNc1cc(C(=O)O)cc(S(N)(=O)=O)c1Oc1ccccc1 [BUMETANIDE]	Inactive	0	< 4	Inactive	0	< 4	0	0	Inactive	Inactive	0	< 4	Inactive	0	< 4	Inactive	0	< 4
CO[C@]12CC[C@@]3(C[C@@H]1[C@](C)(O)C(C)(C)C)[C@H]1Cc4ccc(O)c5c4[C@@]3(CCN1CC1CC1)[C@H]2O5 [BUPRENORPHINE]	Inactive	0	< 4	Inactive	0	< 4	0	0	Inactive	Inactive	0	< 4	Inactive	0	< 4	Inactive	0	< 4
CC(NC(C)(C)C)C(=O)c1cccc(Cl)c1 (stereo unspecified) [BUPROPION]	Inactive	0	< 4	Inactive	0	< 4	0	0	Inactive	Inactive	0	< 4	Inactive	0	< 4	Inactive	0	< 4
O=C1CC2(CCCC2)CC(=O)N1CCCCN1CCN(c2ncccn2)CC1 [BUSPIRONE]	Inactive	0.4	< 4	Inactive	0.6	< 4	0	1	Inactive	Inactive	2.4	>= 4	Inactive	0.9	>= 4	Marginally Active	3.1	>= 4
CN(Cc1ccc(C(C)(C)C)cc1)Cc1cccc2ccccc12 [BUTENAFINE]	Inactive	0	< 4	Inactive	0	< 4	0	0	Inactive	Inactive	0	< 4	Inactive	0	< 4	Inactive	0	< 4
Clc1ccc(CCC(Cn2ccnc2)Sc2c(Cl)cccc2Cl)cc1 (stereo unspecified) [BUTOCONAZOLE]	Inactive	0	< 4	Inactive	0	< 4	0	0	Inactive	Inactive	0	< 4	Inactive	0.2	< 4	Inactive	0.2	< 4
Oc1ccc2c(c1)[C@@]13CCCC[C@@]1(O)[C@@H](C2)N(CC1CCC1)CC3 [BUTORPHANOL]	Inactive	0	< 4	Inactive	0	< 4	0	0	Inactive	Inactive	0	< 4	Inactive	0	< 4	Inactive	0	< 4
C=CCN1C[C@H](C(=O)N(CCCN(C)C)C(=O)NCC)C[C@@H]2c3cccc4[nH]cc(c34)C[C@H]21 [CABERGOLINE]	Inactive	0	< 4	Inactive	0	< 4	0	0	Inactive	Inactive	0	< 4	Inactive	0	< 4	Inactive	0	< 4
C=C1/C(=C\C=C2/CCC[C@]3(C)[C@@H]([C@H](C)/C=C/[C@@H](O)C4CC4)CC[C@@H]23)C[C@@H](O)C[C@@H]1O [CALCIPOTRIENE]	Inactive	0	< 4	Inactive	0	< 4	0	0	Inactive	Inactive	0.3	< 4	Inactive	0	< 4	Inactive	0	< 4
C=C1/C(=C\C=C2/CCC[C@]3(C)[C@@H]([C@H](C)CCCC(C)(C)O)CC[C@@H]23)C[C@@H](O)C[C@@H]1O [CALCITRIOL]	Inactive	0	< 4	Inactive	0	< 4	0	0	Inactive	Inactive	0	< 4	Inactive	0	< 4	Inactive	0	< 4
C[C@H](CS)C(=O)N1CCC[C@H]1C(=O)O [CAPTOPRIL]	Inactive	0.4	< 4	Inactive	0	< 4	0	0	Inactive	Inactive	1.5	>= 4	Inactive	1.1	>= 4	Inactive	0.7	>= 4

Source: ChEMBL document CHEMBL1697781, “Assessment of the health effects of chemicals in humans: II. Construction of an adverse effects database for QSAR modeling” (Curr Drug Discov Technol, 2004)
